From patent US10857160B2, “Oil-in-water nanoemulsion composition of clobetasol” (LABORATORIOS SALVAT, S.A., priority 2017, dated 2020)

Tested on: normotensive albino New Zealand rabbits
Assay: Study of effect on intraocular pressure (IOP)
Format: in vivo, rabbit
Conditions: intra-cameral administration, dexamethasone 0.1% (positive control)
Protocol: Control samples: • Positive control: dexamethasone 0.1%. • Negative control: 0.9% sodium chloride saline solution Material and Method • The laboratory animals used were normotensive albino New Zealand rabbits. The rabbits were adapted to periods of light/dark (12/12 hours) needed to adjust and maintain stable the diurnal cycle of the intraocular pressure (IOP). • Rabbits were distributed in different groups: the positive control group (positive control sample), the negative control group (negative control sample) and two test groups (two test samples). • The treatment involved the injection of dexamethasone into the anterior chamber, meanwhile for the rest of groups; each animal was topically instilled, in each eye with the control sample or the test composition 4 times a day for 15 days. • Measurement of IOP of the groups was performed twice a day. After the instillation in each animal, it was observed the possibility of adverse effects of the respective compound on the ocular surface. Results

**Q.** With C[C@@H]1C[C@H]2[C@@H]3CCC4=CC(=O)C=C[C@]4(C)[C@@]3(F)[C@@H](O)C[C@]2(C)[C@@]1(O)C(=O)CO [dexamethasone] as the molecule, how does the “elevation of the intraocular pressure” value read?
**A.** The value was “statistically significant elevation”.
